“And” between values parts separate entries of the source, which are not always exact repeats. Identical values can stand only once. Like-named read-outs stand apart in the source and are kept apart here. Marks after values point to notes of the source that are not given here.
Experiments:
[1] = Trough plasma concentrations of Compound #10 in HT1080 xenograft mice (HPLC-MS/MS); assay type: in vivo; details: athymic nude, mouse, oral, 1 mg/kg BID
[2] = system: HT1080 tumor cells in vivo; assay: HT1080 xenograft studies of Compound 1205, Compound #10 and Compound 1330: tumor growth; set-up: species or system athymic nude mice; details: Study 24a, 10 mg/kg QD
Description: Experimental Design. HT1080 cells (5×10^6 cells/mouse) were implanted subcutaneously in male athymic nude mice. […] For comparison, Compound #10 was included in this study.

[3] = system: HT1080 cells; assay: Cell cycle analysis by propidium iodide flow cytometry in HT1080 cells (percent cells in S-phase, Table 24); assay type: cell-based, human; details: HT1080, normoxic, 18 hours
Method: Experimental Design. […] After treatment, cells were trypsinized, and stained with propidium iodide (PI) dye to measure DNA content of individual cells by flow cytometry. Output comprised histograms showing relative DNA content in 10,000 cells.
While compounds which cause greater than 20% of the cells to accumulate in S-phase at 100 nM are considered active, a larger percentage of cells may be accumulated in S-phase at lower doses depending on the Compound, as shown in FIG. 12 for example.

[4] = system: HT1080 cells; assay: Anchorage-independent colony formation in HT1080 cells; assay type: cell-based, human; details: 10 and 50 nM, day 18; P=0.29 and 0.07
Method: Experimental Design. HT1080 cells growing in monolayer were trypsinized, counted and suspended in a 0.35% agar noble/1× complete DMEM solution at 37° C. at a concentration of 2,500 cells/mL. One ml of this solution was layered over a semisolid base consisting of 0.5 mL of 0.75% agar noble/1× complete DMEM in a six well tissue culture plate. […] Tissue culture plates were then returned to the incubator and colonies were allowed to form. […] On day 18 the vehicle-treated wells had colonies of sufficient size to count (>50 cells/colony). At this time, for increased visualization, 1.5 mL of a 2× working volume of (3-(4,5-Dimethylthiazol-2-yl)-2,5-diphenyltetrazolium bromide, a tetrazole) (MTT, Invitrogen, Cat #C35007) was added and the plates were returned to the incubator for 2 hours until colonies were stained by conversion of the MTT to purple formazan crystals. Colonies were then visually counted under a dissecting microscope.

[5] = target: T1, CYP2D6 (Homo sapiens, UniProt P10635); assay: CYP inhibition in human hepatic microsomes / recombinant isoenzymes: CYP2D6; assay type: in vitro ADME; details: human hepatic microsomes or recombinant isoenzymes
T1 construct: host or cells: human hepatic microsomes or recombinant isoenzyme (not distinguished)
T1 sequence (P10635 whole entry): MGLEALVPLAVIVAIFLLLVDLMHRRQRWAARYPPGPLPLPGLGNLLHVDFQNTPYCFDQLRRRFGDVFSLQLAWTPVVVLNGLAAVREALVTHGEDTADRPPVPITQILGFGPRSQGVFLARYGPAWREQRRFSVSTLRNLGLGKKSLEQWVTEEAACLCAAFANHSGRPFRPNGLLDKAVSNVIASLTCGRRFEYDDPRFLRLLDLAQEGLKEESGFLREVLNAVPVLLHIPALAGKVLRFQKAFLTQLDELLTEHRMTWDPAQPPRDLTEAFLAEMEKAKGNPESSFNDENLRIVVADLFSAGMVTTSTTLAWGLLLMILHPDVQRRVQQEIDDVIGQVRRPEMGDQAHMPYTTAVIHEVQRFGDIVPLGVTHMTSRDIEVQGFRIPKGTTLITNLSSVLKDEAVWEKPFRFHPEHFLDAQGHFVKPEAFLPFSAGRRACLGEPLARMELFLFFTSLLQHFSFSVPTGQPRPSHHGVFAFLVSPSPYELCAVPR
Description: (§1) It is possible that in certain clinical trial subjects, such agents may need to be adjusted for dosing or replaced by alternative agents that are not metabolized by CYP2D6, particularly when such agents may have a low therapeutic index.

[6] = target: T2, CYP3A4 (Homo sapiens, UniProt P08684); assay: CYP inhibition: CYP3A4; assay type: in vitro ADME; details: human hepatic microsomes or recombinant isoenzymes
T2 construct: host or cells: human hepatic microsomes or recombinant isoenzyme (not distinguished)
T2 sequence (P08684 whole entry): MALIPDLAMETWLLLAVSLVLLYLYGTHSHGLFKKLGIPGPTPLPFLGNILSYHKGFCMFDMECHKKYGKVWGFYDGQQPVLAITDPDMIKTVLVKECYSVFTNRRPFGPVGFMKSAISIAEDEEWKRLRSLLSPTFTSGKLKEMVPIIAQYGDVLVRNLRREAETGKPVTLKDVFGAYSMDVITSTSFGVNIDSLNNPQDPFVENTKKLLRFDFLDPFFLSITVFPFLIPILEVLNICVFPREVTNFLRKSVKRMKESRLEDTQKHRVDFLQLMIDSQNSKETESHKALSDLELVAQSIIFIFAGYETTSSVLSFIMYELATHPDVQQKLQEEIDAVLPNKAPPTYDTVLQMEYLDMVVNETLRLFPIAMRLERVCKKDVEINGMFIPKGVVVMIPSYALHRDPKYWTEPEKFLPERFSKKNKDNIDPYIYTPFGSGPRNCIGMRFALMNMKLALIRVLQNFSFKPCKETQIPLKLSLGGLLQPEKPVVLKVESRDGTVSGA
Description: as §1

[7] = Phase 1 multiple-dose study in healthy volunteers: safety and tolerability; assay type: in vivo, human
Description: Methods. The trial was a Phase 1, randomized, escalating multiple dose, single center study conducted in 2 stages.

[8] = system: VEGF-A; assay: Patients: serum and plasma VEGF-A levels; assay type: in vivo, human
Method: Subjects with NF2 may receive continuous daily treatment with a Compound administered at 100 mg per dose, 2 times a day (BID) for up to 1 year, or longer as appropriate, or until tumor progression. […] Tumor shrinkage or an improvement in hearing are indicators of efficacy.
Anti-angiogenic activity: Assessing VEGF concentrations provides a relevant and convenient mechanism-specific marker of Compound activity. […] For example, clinically validated ELISA kits (e.g., from R&D Systems, Minneapolis, Minn.) may be used to measure concentrations of VEGF, VEGF-C, P1GF, VEGFR, and inflammatory mediators such as IL-6 and IL-8. CT scan and MRI scan may also be used to assess peritumoral inflammation or edema.
Blood for VEGF, VEGFR, and Cytokines. Two blood samples (1 for plasma and 1 for serum) may be obtained for assessment of VEGF, VEGFR, and cytokine levels.
Each sample for plasma collection may comprise 3 mL of venous blood drawn into a […]® tube with K2EDTA as the anticoagulant. Immediately after collection, the tube may be gently inverted 8 to 10 times to mix the anticoagulant with the blood sample. The tube may be stored upright at room temperature until centrifugation; centrifugation and sample processing may be performed within 30 minutes of sample collection. […]

[9] = Patients: hearing function (word recognition, pure tone threshold, BAER); assay type: in vivo, human
Description: Hearing function: Assessments of word recognition and pure tone thresholds may be direct measures of patient functioning that define symptomatic consequences of the presence of VS (see, e.g., Halpin et al., Otol Neurotol., January 2006, 27(1):110-6). Standard clinical criteria for definition of hearing response (H-R) based on a 50-word hearing test (see, e.g., Thornton et al., J. Speech Hear. Res., September 1978, 21(3): 507-18) can be employed for word recognition tests.
Hearing Tests. Subjects may undergo hearing tests at screening, and at various times during the treatment protocol. Hearing assessment may be determined in standard clinical fashion and may include:
Determination of word recognition scores using a standardized list of test words, i.e., the 50-item Central Institute for the Deaf [CID] list W-22, recorded) (Thornton et al., J. Speech Hear Res., September 1978, 21(3): 507-18);
Pure-tone averages calculated as the average of the pure-tone thresholds at 500, 1000, 2000, and 3000 Hz;
Brainstem auditory evoked response (BAERs) reported as the latency of wave V, if present; and […]

[10] = 28-day oral toxicity study in dogs (15-day recovery)
Method: The L23 vehicle was used. […] All studies in the toxicology program were conducted according to GLP regulations.

COc1ccc(C2c3[nH]c4ccc(Cl)cc4c3CCN2C(=O)Oc2ccc(Cl)cc2)cc1 (racemic) [Compound #10]
concentration at 16 h ([1]; 16 hours after the first day of dosing (n=3), read-out: Mean trough plasma concentration): 130 ng/mL and 280 nM | concentration at 16 h ([1]; 16 hours after the last dose on Day 18 (n=4), read-out: Steady state mean trough plasma concentration): 820 ng/mL | Difference vs. vehicle in median number of days to reach 1000 mm^3 [2]: 8** Days | Mean difference in tumor growth rate at the Day that the vehicle-treated tumors taken off study ([2]; Day 11): 59%** | Final mean terminal tumor size in treatment group ([2]; Xeno): 1460 mm^3 | Concentration from which accumulation of cells in S phase is observed [3]: ≥ 1 nM | Effect on cell cycle distribution (FIG. 12, FIG. 24) ([3]; Compound #10 0.3-100 nM, Compound 1205 10 nM): induced a redistribution of the cycling characteristics | Number of anchorage-independent colonies formed [4]: modest trend toward a reduced number of colonies | Inhibition of CYP2D6 isoenzyme activity [5]: inhibits the activity | Inhibition of CYP3A4 [6]: No meaningful inhibition | Grade of treatment emergent adverse events and laboratory abnormalities ([7]; healthy volunteers, 7 days): generally Grade 1 | QTc prolongation ([7]; healthy volunteers, 7 days): no meaningful QTc prolongation | Maximum tolerated dose ([7]; through the highest dose level tested ([…] TID)): No MTD was established | Plasma VEGF-A levels in patients (FIG. 35) [8]: reduced | Serum VEGF-A levels in patients (FIG. 34) [8]: reduced | Hearing function in patients (FIG. 39) [9]: stabilized hearing function | Dose of maximal exposures [10]: 30 mg/kg/dose BID | Target organ of toxicity ([10]; high dose): small intestine
